Results published in paper PMC7486443, “Generation of Phenothiazine with Potent Anti-TLK1 Activity for Prostate Cancer Therapy” (iScience, 2020).

How the values were obtained:
Assay in all cases: biochemical
Design in all cases: DiscoverX KINOMEscan scanMAX competition binding panel, single concentration, percent of control; remaining binding: dose or concentration left out as unconfirmed
Details in all cases: KINOMEscan binding, percent of control; read-out: Table S4_SCANMAX REPORT - related to Fig. 1 / Percent Control
RIPK2 = RIPK2 (Homo sapiens, UniProt O43353)
PHKG2 = PHKG2 (Homo sapiens, UniProt P15735)
MLK1 = biological target: T1, MLK1 (Homo sapiens, UniProt P80192)
T1 construct: gene MAP3K9

MAPKAPK5 = MAPKAPK5 (Homo sapiens, UniProt Q8IW41)
RET(V804M) = RET(V804M) (Homo sapiens, UniProt P07949, V804M)
ACVR2A = ACVR2A (Homo sapiens, UniProt P27037)
Sequence of ACVR2A (P27037 whole entry): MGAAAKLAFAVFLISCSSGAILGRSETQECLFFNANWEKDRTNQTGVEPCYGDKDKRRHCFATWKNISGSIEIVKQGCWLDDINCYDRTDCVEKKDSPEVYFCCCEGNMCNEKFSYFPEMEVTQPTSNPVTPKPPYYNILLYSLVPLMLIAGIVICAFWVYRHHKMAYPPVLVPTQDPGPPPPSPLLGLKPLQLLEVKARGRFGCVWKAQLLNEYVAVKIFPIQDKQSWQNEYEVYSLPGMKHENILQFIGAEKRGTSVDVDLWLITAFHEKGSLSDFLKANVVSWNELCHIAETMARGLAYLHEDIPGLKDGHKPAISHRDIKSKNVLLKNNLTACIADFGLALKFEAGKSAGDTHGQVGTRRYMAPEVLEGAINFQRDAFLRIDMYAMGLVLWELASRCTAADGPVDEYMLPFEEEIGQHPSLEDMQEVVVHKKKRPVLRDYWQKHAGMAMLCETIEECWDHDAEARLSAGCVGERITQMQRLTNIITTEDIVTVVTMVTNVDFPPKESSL

PKN1 = PKN1 (Homo sapiens, UniProt Q16512)
Sequence of PKN1 (Q16512 whole entry): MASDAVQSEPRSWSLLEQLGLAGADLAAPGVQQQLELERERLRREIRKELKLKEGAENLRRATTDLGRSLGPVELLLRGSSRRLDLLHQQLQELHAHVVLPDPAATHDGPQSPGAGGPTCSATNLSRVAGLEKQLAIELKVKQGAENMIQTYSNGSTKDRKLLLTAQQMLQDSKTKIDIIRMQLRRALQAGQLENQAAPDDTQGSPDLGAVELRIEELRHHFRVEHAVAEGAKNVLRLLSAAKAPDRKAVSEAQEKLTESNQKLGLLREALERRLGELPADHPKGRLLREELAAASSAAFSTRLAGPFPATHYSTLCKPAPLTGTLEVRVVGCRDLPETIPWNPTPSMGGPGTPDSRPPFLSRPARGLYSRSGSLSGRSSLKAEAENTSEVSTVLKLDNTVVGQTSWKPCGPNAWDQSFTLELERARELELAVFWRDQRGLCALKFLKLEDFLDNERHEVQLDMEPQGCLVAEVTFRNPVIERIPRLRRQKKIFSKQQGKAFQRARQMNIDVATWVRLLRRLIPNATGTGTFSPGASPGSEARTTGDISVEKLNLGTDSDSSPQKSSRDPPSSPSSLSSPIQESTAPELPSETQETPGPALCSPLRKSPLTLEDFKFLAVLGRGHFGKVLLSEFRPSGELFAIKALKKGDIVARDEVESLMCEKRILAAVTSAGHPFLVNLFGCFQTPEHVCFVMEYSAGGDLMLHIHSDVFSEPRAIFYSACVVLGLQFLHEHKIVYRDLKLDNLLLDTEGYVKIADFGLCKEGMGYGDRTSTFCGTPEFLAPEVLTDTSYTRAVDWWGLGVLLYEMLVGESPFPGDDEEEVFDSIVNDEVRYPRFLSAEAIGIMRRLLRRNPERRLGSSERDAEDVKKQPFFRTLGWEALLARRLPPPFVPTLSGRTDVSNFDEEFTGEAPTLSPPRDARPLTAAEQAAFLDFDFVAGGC

CDK4 = CDK4 (Homo sapiens, UniProt P11802)
[1] = biological target: T2, RPS6KA5(Kin.Dom.2-C-terminal) (Homo sapiens, UniProt O75582)
T2 construct: Kin.Dom.2-C-terminal
T2 sequence (O75582 whole entry): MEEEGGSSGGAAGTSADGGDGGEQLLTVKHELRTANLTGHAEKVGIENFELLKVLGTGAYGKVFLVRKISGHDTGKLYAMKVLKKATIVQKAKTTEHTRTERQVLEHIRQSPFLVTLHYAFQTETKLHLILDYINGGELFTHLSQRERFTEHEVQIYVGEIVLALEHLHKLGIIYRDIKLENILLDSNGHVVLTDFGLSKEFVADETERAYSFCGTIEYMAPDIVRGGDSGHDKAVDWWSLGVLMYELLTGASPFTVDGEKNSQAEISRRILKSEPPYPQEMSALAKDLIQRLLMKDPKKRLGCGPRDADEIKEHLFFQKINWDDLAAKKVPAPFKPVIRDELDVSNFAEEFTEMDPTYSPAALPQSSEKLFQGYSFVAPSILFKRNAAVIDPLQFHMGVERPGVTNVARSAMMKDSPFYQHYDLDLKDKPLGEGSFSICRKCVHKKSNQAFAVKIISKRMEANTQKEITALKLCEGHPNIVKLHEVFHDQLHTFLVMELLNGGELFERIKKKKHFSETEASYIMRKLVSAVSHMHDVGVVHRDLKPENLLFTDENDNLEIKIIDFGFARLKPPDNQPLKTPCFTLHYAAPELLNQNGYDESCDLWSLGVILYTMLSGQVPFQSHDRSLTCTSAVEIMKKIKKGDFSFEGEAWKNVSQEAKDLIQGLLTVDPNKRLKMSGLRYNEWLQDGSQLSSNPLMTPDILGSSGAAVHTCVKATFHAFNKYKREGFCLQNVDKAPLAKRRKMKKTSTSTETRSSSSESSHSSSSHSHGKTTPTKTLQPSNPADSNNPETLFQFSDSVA

DAPK1 = DAPK1 (Homo sapiens, UniProt P53355)
[2] = biological target: T3, RSK4(Kin.Dom.1-N-terminal) (Homo sapiens, UniProt Q9UK32)
T3 construct: gene RPS6KA6; Kin.Dom.1-N-terminal
T3 sequence (Q9UK32 whole entry): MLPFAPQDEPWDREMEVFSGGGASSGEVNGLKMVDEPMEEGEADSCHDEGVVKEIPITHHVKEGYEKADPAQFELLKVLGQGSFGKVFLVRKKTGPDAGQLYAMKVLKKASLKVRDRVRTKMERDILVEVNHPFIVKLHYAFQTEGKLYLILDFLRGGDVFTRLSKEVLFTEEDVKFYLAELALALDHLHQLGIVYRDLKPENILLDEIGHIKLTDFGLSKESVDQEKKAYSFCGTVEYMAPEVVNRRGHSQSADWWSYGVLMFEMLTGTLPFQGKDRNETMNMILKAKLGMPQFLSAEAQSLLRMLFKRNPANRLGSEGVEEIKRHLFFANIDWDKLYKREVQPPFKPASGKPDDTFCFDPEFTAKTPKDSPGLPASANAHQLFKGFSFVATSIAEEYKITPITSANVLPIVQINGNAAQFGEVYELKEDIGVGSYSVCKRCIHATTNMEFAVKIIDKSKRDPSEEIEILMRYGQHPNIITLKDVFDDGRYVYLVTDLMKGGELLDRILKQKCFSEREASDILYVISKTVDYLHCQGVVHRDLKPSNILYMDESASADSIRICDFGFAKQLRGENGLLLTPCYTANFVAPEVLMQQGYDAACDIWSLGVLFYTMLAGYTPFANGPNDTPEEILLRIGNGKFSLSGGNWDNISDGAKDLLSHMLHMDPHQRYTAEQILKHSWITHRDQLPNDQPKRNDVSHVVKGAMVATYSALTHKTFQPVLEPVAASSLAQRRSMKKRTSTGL

DRAK1 = biological target: T4, DRAK1 (Homo sapiens, UniProt Q9UEE5)
T4 construct: gene STK17A
T4 sequence (Q9UEE5 whole entry): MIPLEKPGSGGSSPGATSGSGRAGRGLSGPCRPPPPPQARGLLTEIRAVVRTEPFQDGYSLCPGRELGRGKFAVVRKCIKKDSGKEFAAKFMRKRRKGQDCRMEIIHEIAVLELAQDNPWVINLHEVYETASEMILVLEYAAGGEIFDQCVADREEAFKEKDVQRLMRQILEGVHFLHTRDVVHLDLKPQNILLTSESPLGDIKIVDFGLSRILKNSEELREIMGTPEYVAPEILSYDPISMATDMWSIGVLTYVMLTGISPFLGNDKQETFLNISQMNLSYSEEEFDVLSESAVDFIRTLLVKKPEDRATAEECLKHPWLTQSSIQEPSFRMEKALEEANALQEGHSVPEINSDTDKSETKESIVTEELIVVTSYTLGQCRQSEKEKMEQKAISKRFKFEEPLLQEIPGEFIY

FLT3(R834Q) = FLT3(R834Q) (Homo sapiens, UniProt P36888, R834Q)
RIPK4 = RIPK4 (Homo sapiens, UniProt P57078)
MYO3B = MYO3B (Homo sapiens, UniProt Q8WXR4)
Sequence of MYO3B (Q8WXR4 whole entry): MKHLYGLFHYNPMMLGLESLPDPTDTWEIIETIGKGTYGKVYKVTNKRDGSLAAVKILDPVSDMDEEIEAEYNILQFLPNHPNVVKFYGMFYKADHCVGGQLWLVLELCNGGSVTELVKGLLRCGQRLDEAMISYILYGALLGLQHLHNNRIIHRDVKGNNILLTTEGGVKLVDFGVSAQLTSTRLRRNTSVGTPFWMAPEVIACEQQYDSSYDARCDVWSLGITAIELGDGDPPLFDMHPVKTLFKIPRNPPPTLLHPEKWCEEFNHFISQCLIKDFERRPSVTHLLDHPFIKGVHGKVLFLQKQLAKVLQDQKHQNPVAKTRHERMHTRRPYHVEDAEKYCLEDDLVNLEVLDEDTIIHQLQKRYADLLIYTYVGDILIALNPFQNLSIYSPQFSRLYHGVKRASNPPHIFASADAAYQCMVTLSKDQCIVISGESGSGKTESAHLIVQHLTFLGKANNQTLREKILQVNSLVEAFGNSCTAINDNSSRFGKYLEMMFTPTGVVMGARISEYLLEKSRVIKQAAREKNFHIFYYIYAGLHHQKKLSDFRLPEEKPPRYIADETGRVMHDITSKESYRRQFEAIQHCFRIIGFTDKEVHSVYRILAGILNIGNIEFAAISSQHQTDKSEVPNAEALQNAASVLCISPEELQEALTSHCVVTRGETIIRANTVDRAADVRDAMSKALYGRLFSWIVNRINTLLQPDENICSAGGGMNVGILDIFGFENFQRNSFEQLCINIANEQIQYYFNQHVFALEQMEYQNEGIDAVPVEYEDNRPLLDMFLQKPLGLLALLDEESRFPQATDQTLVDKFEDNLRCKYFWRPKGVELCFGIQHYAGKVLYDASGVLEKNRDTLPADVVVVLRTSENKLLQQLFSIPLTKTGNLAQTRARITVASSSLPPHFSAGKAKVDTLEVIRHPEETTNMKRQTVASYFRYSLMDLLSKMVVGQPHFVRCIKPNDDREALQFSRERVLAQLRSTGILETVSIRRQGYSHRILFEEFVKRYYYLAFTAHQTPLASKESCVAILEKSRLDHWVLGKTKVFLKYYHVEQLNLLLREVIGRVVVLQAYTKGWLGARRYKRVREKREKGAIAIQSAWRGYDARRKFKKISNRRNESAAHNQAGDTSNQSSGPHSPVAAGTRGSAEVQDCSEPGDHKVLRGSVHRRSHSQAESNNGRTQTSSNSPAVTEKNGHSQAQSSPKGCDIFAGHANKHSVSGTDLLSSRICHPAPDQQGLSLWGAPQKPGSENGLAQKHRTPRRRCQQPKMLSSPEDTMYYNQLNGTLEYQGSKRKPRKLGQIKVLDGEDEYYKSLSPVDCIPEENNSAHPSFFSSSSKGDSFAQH

TRKA = biological target: T5, TRKA (Homo sapiens, UniProt P04629)
T5 construct: gene NTRK1

STK16 = STK16 (Homo sapiens, UniProt O75716)
Sequence of STK16 (O75716 whole entry): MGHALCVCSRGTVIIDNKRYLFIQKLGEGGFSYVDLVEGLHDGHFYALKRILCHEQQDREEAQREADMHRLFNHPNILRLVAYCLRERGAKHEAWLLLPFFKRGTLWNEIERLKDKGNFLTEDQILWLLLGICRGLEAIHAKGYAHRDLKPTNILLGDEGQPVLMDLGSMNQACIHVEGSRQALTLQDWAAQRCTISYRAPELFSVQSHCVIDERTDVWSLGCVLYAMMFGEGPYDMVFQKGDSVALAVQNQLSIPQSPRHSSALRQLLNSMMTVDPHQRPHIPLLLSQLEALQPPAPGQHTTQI

TRKB = biological target: T6, TRKB (Homo sapiens, UniProt Q16620)
T6 construct: gene NTRK2

c1ccc2c(c1)Sc1ccccc1N2CCN1CCOCC1 [J54]
remaining binding (RIPK2): 100%
remaining binding (PHKG2): 94%
remaining binding (MLK1): 97%
remaining binding (MAPKAPK5): 100%
remaining binding (RET(V804M)): 100%
remaining binding (ACVR2A): 86%
remaining binding (PKN1): 100%
remaining binding (CDK4): 100%
remaining binding [1]: 100%
remaining binding (DAPK1): 99%
remaining binding [2]: 100%
remaining binding (DRAK1): 89%
remaining binding (FLT3(R834Q)): 100%
remaining binding (RIPK4): 100%
remaining binding (MYO3B): 100%
remaining binding (TRKA): 82%
remaining binding (STK16): 99%
remaining binding (TRKB): 89%
